Data on 15 molecules can be found in patent US9630922B2, “3-spiro-7-hydroxamic acid tetralins as HDAC inhibitors” (Forma Therapeutics, Inc., priority 2015, dated 2017).

Bounds are passed on as bounds.

This test has as its target T1, HDAC6 (Homo sapiens, UniProt Q9UBN7).
T1 construct: Full length human recombinant HDAC6 protein was expressed in baculoviral system; made in house; host or cells: baculoviral system
T1 sequence (Q9UBN7 1-1215): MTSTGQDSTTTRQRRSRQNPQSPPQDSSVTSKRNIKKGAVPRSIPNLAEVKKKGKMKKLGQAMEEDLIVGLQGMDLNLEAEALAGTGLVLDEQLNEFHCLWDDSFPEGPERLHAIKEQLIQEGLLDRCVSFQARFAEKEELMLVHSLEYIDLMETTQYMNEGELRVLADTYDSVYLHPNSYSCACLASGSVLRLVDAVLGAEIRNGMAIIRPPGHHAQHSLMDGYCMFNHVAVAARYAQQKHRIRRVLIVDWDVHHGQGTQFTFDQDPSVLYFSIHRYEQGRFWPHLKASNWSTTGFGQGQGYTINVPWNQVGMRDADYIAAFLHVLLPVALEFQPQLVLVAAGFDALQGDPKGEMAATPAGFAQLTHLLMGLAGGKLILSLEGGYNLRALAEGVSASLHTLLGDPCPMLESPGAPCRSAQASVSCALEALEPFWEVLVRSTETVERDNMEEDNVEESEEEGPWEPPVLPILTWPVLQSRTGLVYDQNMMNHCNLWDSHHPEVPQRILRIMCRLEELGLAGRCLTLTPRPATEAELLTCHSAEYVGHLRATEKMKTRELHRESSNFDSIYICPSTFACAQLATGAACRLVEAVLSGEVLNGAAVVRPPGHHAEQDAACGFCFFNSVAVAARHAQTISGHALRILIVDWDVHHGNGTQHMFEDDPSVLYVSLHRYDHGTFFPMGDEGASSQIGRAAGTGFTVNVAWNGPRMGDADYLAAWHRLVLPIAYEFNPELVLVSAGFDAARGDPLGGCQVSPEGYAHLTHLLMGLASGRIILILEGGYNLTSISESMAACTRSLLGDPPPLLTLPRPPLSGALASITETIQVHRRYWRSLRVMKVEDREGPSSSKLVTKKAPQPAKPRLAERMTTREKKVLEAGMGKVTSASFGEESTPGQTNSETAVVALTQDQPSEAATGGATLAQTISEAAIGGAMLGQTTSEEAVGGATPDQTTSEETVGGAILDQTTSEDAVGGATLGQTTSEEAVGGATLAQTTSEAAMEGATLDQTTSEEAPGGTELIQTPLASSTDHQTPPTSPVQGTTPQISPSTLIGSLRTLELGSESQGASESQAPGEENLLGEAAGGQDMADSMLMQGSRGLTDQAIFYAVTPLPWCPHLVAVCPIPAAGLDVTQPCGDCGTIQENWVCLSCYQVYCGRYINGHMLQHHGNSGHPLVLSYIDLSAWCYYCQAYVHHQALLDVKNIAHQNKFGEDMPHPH
Description: In vitro Histone Deacetylase Assay (enzymatic HDAC6 electrophoretic mobility shift assay). The conditions noted are these: full length human recombinant HDAC6, 1 nM enzyme, 2 μM peptide substrate RHKK(Ac)-NH2, 25° C.; read-out: HDAC6 activity range. The format is biochemical. The gist of the method:
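Full-length recombinant human HDAC6 (baculovirus-expressed, 1 nM) was incubated at 25 °C with 2 μM fluorescent RHKK(Ac)-NH2 peptide in HEPES pH 7.5, KCl, BSA, Triton X-100 and 1% DMSO, then SDS-quenched. Substrate and product were separated by microfluidic mobility shift, and IC50 came from 4-parameter fits of 12-point, 3-fold dilution curves.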
On to `O=C(NO)c1ccc2c(c1)CC[C@@]1(CCN(CC3CCC3)C1=O)C2` [Compound I-61, (S)-1′-(cyclobutylmethyl)-N-hydroxy-2′-oxo-3,4-dihydro-1H-spiro[naphthalene-2,3′-pyrrolidine]-6-carboxamide], for which the IC50 was in the range of 0.1 to 0.5 µM. To `COc1ccc(F)c(N2CC[C@@]3(CCc4cc(C(=O)NO)ccc4C3)C2=O)c1` [Compound I-147, (2S)-1′-(2-fluoro-5-methoxyphenyl)-N-hydroxy-2′-oxo-3,4-dihydro-1H-spiro[naphthalene-2,3′-pyrrolidine]-6-carboxamide] belongs at most 0.1 µM; to `CC#CCN1CC[C@@]2(CCc3cc(C(=O)NO)ccc3C2)C1=O` [Compound I-63, (S)-1′-(but-2-yn-1-yl)-N-hydroxy-2′-oxo-3,4-dihydro-1H-spiro[naphthalene-2,3′-pyrrolidine]-6-carboxamide], at most 0.1 µM. Regarding `O=C(NO)c1ccc2c(c1)CC[C@@]1(CCN(Cc3ccccc3Cl)C1=O)C2` [Compound I-68, (S)-1′-(2-chlorobenzyl)-N-hydroxy-2′-oxo-3,4-dihydro-1H-spiro[naphthalene-2,3′-pyrrolidine]-6-carboxamide], the IC50 fell in the range of 0.1 to 0.5 µM. Take `O=C(NO)c1ccc2c(c1)CC[C@@]1(CCCN(CC3CCC3)C1=O)C2` (single isomer, unassigned) [Compound I-185]: the IC50 is at most 0.1 µM.

On to `O=C(NO)c1ccc2c(c1)CC[C@]1(CCN(Cc3cccnc3)C1=O)C2` [Compound I-18, (R)-N-hydroxy-2′-oxo-1′-(pyridin-3-ylmethyl)-3,4-dihydro-1H-spiro[naphthalene-2,3′-pyrrolidine]-6-carboxamide], for which the IC50 is at most 0.1 µM. Regarding `O=C(NO)c1ccc2c(c1)CC[C@@]1(CCN(C/C=C/c3ccccc3)C1=O)C2` [Compound I-65, (S)-1′-cinnamyl-N-hydroxy-2′-oxo-3,4-dihydro-1H-spiro[naphthalene-2,3′-pyrrolidine]-6-carboxamide], the IC50 is at most 0.1 µM. In the case of `O=C(NO)c1ccc2c(c1)CC[C@]1(CCCN(c3ccccc3)C1=O)C2` (single isomer, unassigned) [Compound I-182], the IC50 was at most 0.1 µM. Turning to `N#Cc1ccccc1N1CC[C@]2(CCc3cc(C(=O)NO)ccc3C2)C1=O` [Compound I-175, (R)-1′-(2-cyanophenyl)-N-hydroxy-2′-oxo-3,4-dihydro-1H-spiro[naphthalene-2,3′-pyrrolidine]-6-carboxamide], the IC50 was at most 0.1 µM.

For the molecule `O=C(NO)c1ccc2c(c1)CC[C@]1(CCN(c3ccncc3Cl)C1=O)C2` [Compound I-140, (R)-1′-(3-chloropyridin-4-yl)-N-hydroxy-2′-oxo-3,4-dihydro-1H-spiro[naphthalene-2,3′-pyrrolidine]-6-carboxamide], the IC50 is at most 0.1 µM.

Consider `COc1ccc(CN2CCC3(CCc4cc(C(=O)NO)ccc4C3)C2)cc1` (stereo not drawn) [Compound I-3, N-hydroxy-1′-(4-methoxybenzyl)-3,4-dihydro-1H-spiro[naphthalene-2,3′-pyrrolidine]-6-carboxamide], for which the IC50 was in the range of 0.1 to 0.5 µM. With `COc1cccc(N2CC[C@@]3(CCc4cc(C(=O)NO)ccc4C3)C2=O)c1F` [Compound I-126, (2S)-1′-(2-fluoro-3-methoxyphenyl)-N-hydroxy-2′-oxo-3,4-dihydro-1H-spiro[naphthalene-2,3′-pyrrolidine]-6-carboxamide], the IC50 was at most 0.1 µM. On to `O=C(NO)c1ccc2c(c1)CC[C@@]1(CCN(Cc3cc(Cl)ccc3Cl)C1=O)C2` [Compound I-74, (S)-1′-(2,5-dichlorobenzyl)-N-hydroxy-2′-oxo-3,4-dihydro-1H-spiro[naphthalene-2,3′-pyrrolidine]-6-carboxamide], for which the IC50 fell in the range of 0.1 to 0.5 µM.

With `COCCCN1CCCC2(CCc3cc(C(=O)NO)ccc3C2)C1=O` (single isomer, unassigned) [Compound I-188], the IC50 is at most 0.1 µM. For `O=C(NO)c1ccc2c(c1)CC[C@@]1(CCN(c3ccc(F)cc3)C1=O)C2` [Compound I-154, (S)-1′-(4-fluorophenyl)-N-hydroxy-2′-oxo-3,4-dihydro-1H-spiro[naphthalene-2,3′-pyrrolidine]-6-carboxamide], the IC50 was at most 0.1 µM.
